Assay results as given in ChEMBL document CHEMBL1201862, “PubChem BioAssay data set” (2004).
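96-well plates; 48 h exposure; 5 concentrations. Endpoints by linear interpolation between flanking doses. Not reached: highest tested concentration assigned. GI50 marks 50% less growth.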 Calls of active or inactive are those of the source. Rule as the data show it: active = GI50 up to about 1.1 µM and inactive = higher.

Columns and labels:
Experiment in all cases: DTP human tumour cell line panel, 48 h
[1] = tested on: U-251
[2] = tested on: SK-OV-3
[3] = tested on: NCI-H226
[4] = tested on: M14
[5] = tested on: COLO 205
[6] = tested on: PC-3
[7] = tested on: 786-0
[8] = tested on: SK-MEL-2
[9] = tested on: DU-145
[10] = tested on: SK-MEL-28
[11] = tested on: SK-MEL-5
[12] = tested on: SNB-75
[13] = tested on: RPMI-8226
[14] = tested on: SNB-19
[15] = tested on: A498
[16] = tested on: UACC-62
[17] = tested on: RXF 393
[18] = tested on: SR
[19] = tested on: MOLT-4
[20] = tested on: K562

Structure (SMILES)	GI50 [1]	GI50 [2]	GI50 [3]	GI50 [4]	GI50 [5]	GI50 [6]	GI50 [7]	GI50 [8]	GI50 [9]	GI50 [10]	GI50 [11]	GI50 [12]	GI50 [13]	GI50 [14]	GI50 [15]	GI50 [16]	GI50 [17]	GI50 [18]	GI50 [19]	GI50 [20]
CCCCc1c(C(=O)OC(C)(C)C)cc(C#Cc2cc(C(=O)OC(C)(C)C)c(CCCC)c(C(=O)OC(C)(C)C)c2)cc1C(=O)OC(C)(C)C	> 100 µM (inactive)	> 100 µM (inactive)	> 100 µM (inactive)	> 100 µM (inactive)	> 100 µM (inactive)	> 100 µM (inactive)	> 100 µM (inactive)	> 100 µM (inactive)	> 100 µM (inactive)	> 100 µM (inactive)	> 100 µM (inactive)	> 100 µM (inactive)	> 100 µM (inactive)	> 100 µM (inactive)	> 100 µM (inactive)	> 100 µM (inactive)	–	–	–	–
N=C(N)N/N=C/c1c[nH]c2ccccc12	> 100 µM (inactive)	> 100 µM (inactive)	> 100 µM (inactive)	> 100 µM (inactive)	> 100 µM (inactive)	–	> 100 µM (inactive)	> 100 µM (inactive)	–	> 100 µM (inactive)	> 100 µM (inactive)	> 100 µM (inactive)	> 100 µM (inactive)	> 100 µM (inactive)	–	> 100 µM (inactive)	> 100 µM (inactive)	> 100 µM (inactive)	> 100 µM (inactive)	> 100 µM (inactive)
CCC1C(C#N)=C(N)OC2=C1C(=O)CC(C)(C)C2 (configuration not stated)	> 100 µM (inactive)	> 100 µM (inactive)	–	> 100 µM (inactive)	> 100 µM (inactive)	> 100 µM (inactive)	> 100 µM (inactive)	> 100 µM (inactive)	> 100 µM (inactive)	> 100 µM (inactive)	> 100 µM (inactive)	–	> 100 µM (inactive)	> 100 µM (inactive)	> 100 µM (inactive)	> 100 µM (inactive)	–	–	> 100 µM (inactive)	–
Clc1ccc(C2=Nc3ccccc3SC(c3cccs3)C2)cc1 (configuration not stated)	11.8 µM (inactive)	16.8 µM (inactive)	–	16.4 µM (inactive)	17.4 µM (inactive)	–	16.3 µM (inactive)	–	–	17.6 µM (inactive)	16.5 µM (inactive)	16.9 µM (inactive)	2.42 µM (inactive)	16.4 µM (inactive)	14.9 µM (inactive)	15.3 µM (inactive)	10.7 µM (inactive)	2.43 µM (inactive)	20.9 µM (inactive)	5.16 µM (inactive)
O=C(O)CCNC(=O)c1cc(N(CCBr)CCBr)c([N+](=O)[O-])cc1[N+](=O)[O-]	> 100 µM (inactive)	> 100 µM (inactive)	> 100 µM (inactive)	> 100 µM (inactive)	> 100 µM (inactive)	> 100 µM (inactive)	> 100 µM (inactive)	> 100 µM (inactive)	–	> 100 µM (inactive)	> 100 µM (inactive)	> 100 µM (inactive)	> 100 µM (inactive)	> 100 µM (inactive)	> 100 µM (inactive)	–	–	> 100 µM (inactive)	> 100 µM (inactive)	> 100 µM (inactive)
COc1cc(/C=N\c2ccc(C(C)C)cc2)cc(OC)c1OC	> 100 µM (inactive)	> 100 µM (inactive)	> 100 µM (inactive)	> 100 µM (inactive)	> 73.6 µM (inactive)	–	> 100 µM (inactive)	> 100 µM (inactive)	–	> 100 µM (inactive)	> 78 µM (inactive)	98.4 µM (inactive)	> 42 µM (inactive)	> 100 µM (inactive)	> 100 µM (inactive)	> 100 µM (inactive)	> 100 µM (inactive)	54.3 µM (inactive)	> 100 µM (inactive)	> 50.4 µM (inactive)
CCOC(=O)C(O)(NC(=O)Nc1ccc(F)cc1)C(F)(F)F (configuration not stated)	> 100 µM (inactive)	> 100 µM (inactive)	–	> 100 µM (inactive)	> 100 µM (inactive)	> 100 µM (inactive)	> 100 µM (inactive)	> 100 µM (inactive)	–	> 100 µM (inactive)	> 100 µM (inactive)	> 100 µM (inactive)	> 100 µM (inactive)	> 100 µM (inactive)	> 100 µM (inactive)	–	> 100 µM (inactive)	> 100 µM (inactive)	> 100 µM (inactive)	> 100 µM (inactive)
CCCCCCCCCCCC(=O)c1c(O)cccc1O	19.3 µM (inactive)	30.8 µM (inactive)	19.3 µM (inactive)	18.6 µM (inactive)	15.3 µM (inactive)	–	18.1 µM (inactive)	15.4 µM (inactive)	–	17.8 µM (inactive)	13.6 µM (inactive)	16.8 µM (inactive)	26.7 µM (inactive)	16.5 µM (inactive)	–	19.6 µM (inactive)	24.4 µM (inactive)	21 µM (inactive)	20.4 µM (inactive)	31.9 µM (inactive)
COc1cc(NS(=O)(=O)c2ccc(C)cc2)c2nccnc2c1	22.1 µM (inactive)	84.9 µM (inactive)	36.9 µM (inactive)	17 µM (inactive)	27 µM (inactive)	–	36.1 µM (inactive)	16.6 µM (inactive)	–	30.7 µM (inactive)	23.7 µM (inactive)	24.3 µM (inactive)	25.5 µM (inactive)	29.8 µM (inactive)	56.2 µM (inactive)	14.8 µM (inactive)	14.3 µM (inactive)	16.7 µM (inactive)	12.4 µM (inactive)	20.4 µM (inactive)
O=c1c2cc(Br)ccc2n(C2OC(CO)C(O)C(O)C2O)c(=S)n1-c1ccccc1 (configuration not stated)	> 100 µM (inactive)	–	> 100 µM (inactive)	–	> 100 µM (inactive)	–	82.4 µM (inactive)	> 100 µM (inactive)	–	> 100 µM (inactive)	–	68.1 µM (inactive)	> 100 µM (inactive)	> 100 µM (inactive)	> 100 µM (inactive)	–	> 100 µM (inactive)	73.3 µM (inactive)	86.7 µM (inactive)	> 100 µM (inactive)
CCOC(=O)C1=C(C)NC(=O)NC1c1ccc(OC)cc1OC (configuration not stated)	52.6 µM (inactive)	> 100 µM (inactive)	> 100 µM (inactive)	> 100 µM (inactive)	> 100 µM (inactive)	–	> 100 µM (inactive)	> 100 µM (inactive)	–	–	> 100 µM (inactive)	> 100 µM (inactive)	79.1 µM (inactive)	> 100 µM (inactive)	> 100 µM (inactive)	> 100 µM (inactive)	72.6 µM (inactive)	> 100 µM (inactive)	> 100 µM (inactive)	> 100 µM (inactive)
CCC1=CC2CN3Cn4c(c(COCc5c6n(c7ccccc57)CN5CC7C=C(CC)C5C6(C(=O)OC)C7)c5ccccc54)C(C(=O)OC)(C2)C13	> 100 µM (inactive)	92.5 µM (inactive)	> 100 µM (inactive)	> 100 µM (inactive)	> 100 µM (inactive)	–	> 100 µM (inactive)	> 100 µM (inactive)	–	> 100 µM (inactive)	> 100 µM (inactive)	–	> 100 µM (inactive)	> 100 µM (inactive)	> 100 µM (inactive)	> 100 µM (inactive)	> 100 µM (inactive)	> 100 µM (inactive)	> 100 µM (inactive)	> 100 µM (inactive)
Cc1c(C(=O)Nc2ccc(Cl)c(C(F)(F)F)c2)oc2cc(O)ccc2/c1=N\NC(N)=S	> 100 µM (inactive)	> 100 µM (inactive)	> 100 µM (inactive)	> 100 µM (inactive)	> 100 µM (inactive)	–	> 100 µM (inactive)	> 100 µM (inactive)	–	> 100 µM (inactive)	> 100 µM (inactive)	> 100 µM (inactive)	> 100 µM (inactive)	> 100 µM (inactive)	> 100 µM (inactive)	> 100 µM (inactive)	> 100 µM (inactive)	> 100 µM (inactive)	> 100 µM (inactive)	> 100 µM (inactive)
CC(C)(C)OC(=O)NCC(CNC(=O)OC(C)(C)C)c1nc(C(N)=O)cs1	> 100 µM (inactive)	> 100 µM (inactive)	> 100 µM (inactive)	> 100 µM (inactive)	> 100 µM (inactive)	> 100 µM (inactive)	> 100 µM (inactive)	> 100 µM (inactive)	–	> 100 µM (inactive)	> 100 µM (inactive)	0.818 µM (active)	–	> 100 µM (inactive)	> 100 µM (inactive)	> 100 µM (inactive)	> 100 µM (inactive)	> 100 µM (inactive)	> 100 µM (inactive)	> 100 µM (inactive)
O=C(/C=C/c1ccc[nH]1)c1ccccc1	> 100 µM (inactive)	> 100 µM (inactive)	> 100 µM (inactive)	> 100 µM (inactive)	> 100 µM (inactive)	–	> 100 µM (inactive)	> 100 µM (inactive)	–	> 100 µM (inactive)	> 100 µM (inactive)	29.6 µM (inactive)	95.9 µM (inactive)	> 100 µM (inactive)	–	> 100 µM (inactive)	> 100 µM (inactive)	> 100 µM (inactive)	> 100 µM (inactive)	> 100 µM (inactive)
COc1nc(OC)c2c(=O)oc(-c3ccccc3)cc2n1	> 100 µM (inactive)	> 100 µM (inactive)	> 100 µM (inactive)	–	–	–	> 100 µM (inactive)	> 100 µM (inactive)	–	> 100 µM (inactive)	> 100 µM (inactive)	53.5 µM (inactive)	> 100 µM (inactive)	> 100 µM (inactive)	–	> 100 µM (inactive)	> 100 µM (inactive)	> 100 µM (inactive)	> 100 µM (inactive)	> 100 µM (inactive)
